The source made the active and inactive calls.
Assays:
[1] = viability of uninfected HEp-2 cells – cell-based, HTS, cytotoxicity control for RSV inhibitor project, dose response (AID 2410); assay type: functional; conditions: human respiratory syncytial virus
[2] = inhibition of ADAM10 peptide cleavage – biochemical, FRET peptide substrate, recombinant human ADAM10, selectivity assay for ADAM17 exosite inhibitor project, dose response (AID 743259);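 note: ADAM10 enzyme cleaving a FRET peptide substrate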
[3] = molecular target: T1, Disintegrin and metalloproteinase domain-containing protein 17 (Homo sapiens, UniProt P78536); experiment: exosite inhibitors of ADAM17, dose response, biochemical (AID 743260)
T1 sequence (P78536 whole entry, the tested form may be a part): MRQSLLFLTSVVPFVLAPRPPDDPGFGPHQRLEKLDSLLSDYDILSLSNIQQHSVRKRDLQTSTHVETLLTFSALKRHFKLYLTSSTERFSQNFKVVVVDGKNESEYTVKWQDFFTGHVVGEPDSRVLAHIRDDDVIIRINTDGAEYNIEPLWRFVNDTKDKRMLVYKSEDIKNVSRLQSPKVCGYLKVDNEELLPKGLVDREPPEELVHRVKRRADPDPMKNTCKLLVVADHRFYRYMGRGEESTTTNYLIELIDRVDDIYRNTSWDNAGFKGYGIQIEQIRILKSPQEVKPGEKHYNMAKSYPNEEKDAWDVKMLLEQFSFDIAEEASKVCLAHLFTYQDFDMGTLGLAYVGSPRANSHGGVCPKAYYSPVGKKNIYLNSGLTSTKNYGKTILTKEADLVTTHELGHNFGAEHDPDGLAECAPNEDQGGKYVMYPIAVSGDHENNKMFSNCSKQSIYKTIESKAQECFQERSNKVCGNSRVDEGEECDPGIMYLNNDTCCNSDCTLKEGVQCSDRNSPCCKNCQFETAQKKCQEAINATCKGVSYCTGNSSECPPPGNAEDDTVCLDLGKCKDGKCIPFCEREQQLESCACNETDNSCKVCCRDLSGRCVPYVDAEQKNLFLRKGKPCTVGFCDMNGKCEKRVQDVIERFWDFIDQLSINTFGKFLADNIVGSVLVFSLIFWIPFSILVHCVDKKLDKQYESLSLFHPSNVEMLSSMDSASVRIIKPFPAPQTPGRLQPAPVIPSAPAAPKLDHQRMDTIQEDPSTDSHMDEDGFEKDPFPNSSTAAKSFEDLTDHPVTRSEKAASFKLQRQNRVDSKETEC

Vero [4] = experiment: viability loss in Vero cells – cell-based, plate reader, cherry-pick samples, cytotoxicity control, dose response (AID 687020); assay type: functional; conditions: Chlorocebus sabaeus
[5] = blockers of HIV-1 envelope-mediated cell-cell fusion – cherry-pick, dose response (AID 652057); assay type: functional, cell-based
[6] = off-target signal loss in HeLa-CEM21 co-culture – HeLa F-luc CTL cells, cherry-picked, counter-screen for HIV-1 Env fusion inhibitor project, dose response (AID 652040); assay type: functional, cell-based;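 note: potency for signal decrease marking cytotoxic or nonspecific inhibition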
[7] = Luminescence Cell-Based Dose Retest to Confirm Inhibitors of Cancer Stem Cells. [Related pubchem assays (depositor defined):AID2717, AID2721]; assay type: functional; conditions: Homo sapiens
[8] = viability loss in CEM21 cells – cell-based, CellTiter-Glo luminescence, cherry-picked, cytotoxicity control for viral fusion inhibitor project, dose response (AID 652042); assay type: functional;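 note: potency for signal decrease meaning cytotoxicity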
[9] = blockers of HIV-1 ZM109 envelope-driven cell-cell fusion – HeLa effector, CEM target cells, luciferase, cherry-pick, dose response (AID 652058); assay type: functional, cell-based;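 note: luciferase signal from HIV-1 Env mediated cell-cell fusion of effector and target cells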
[10] = HIV-1 AD8 envelope cell-cell fusion blockers – cherry-pick, dose response (AID 652062); assay type: functional, cell-based;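 note: luciferase signal from cell-cell fusion driven by HIV-1 clade B AD8 Env; potency is for inhibitors of fusion seen as a drop in luminescence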
[11] = molecular target: T2, Heat shock factor protein 1 (Mus musculus, UniProt P38532); experiment: decrease of HSF1-responsive luciferase luminescence – cell-based, NIH3T3, dose retest, confirmation (AID 2382); assay type: functional;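 note: NIH3T3 fibroblasts with HSF1-driven luciferase reporter stressed by proteasome inhibitor MG132; luminescence from HSF1-driven luciferase expression after 8 hours of MG132 stress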
T2 sequence (P38532 whole entry): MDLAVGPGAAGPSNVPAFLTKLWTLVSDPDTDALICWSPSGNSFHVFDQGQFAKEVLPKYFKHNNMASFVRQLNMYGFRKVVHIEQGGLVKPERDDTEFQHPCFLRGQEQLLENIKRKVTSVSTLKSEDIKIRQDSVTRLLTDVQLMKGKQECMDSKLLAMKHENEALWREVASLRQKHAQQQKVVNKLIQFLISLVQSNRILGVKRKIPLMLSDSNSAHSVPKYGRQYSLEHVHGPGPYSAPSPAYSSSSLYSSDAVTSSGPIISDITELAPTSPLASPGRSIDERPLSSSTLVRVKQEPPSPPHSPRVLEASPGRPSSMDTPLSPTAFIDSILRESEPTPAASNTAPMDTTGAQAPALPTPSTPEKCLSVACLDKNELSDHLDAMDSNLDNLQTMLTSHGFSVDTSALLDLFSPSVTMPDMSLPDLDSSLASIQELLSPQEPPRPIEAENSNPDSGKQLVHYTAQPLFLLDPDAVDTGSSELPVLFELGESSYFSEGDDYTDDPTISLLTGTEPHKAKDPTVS

Leucine aminopeptidase = molecular target: T3, Leucine aminopeptidase (Plasmodium falciparum 3D7, UniProt Q8IL11); experiment: P. falciparum M17LAP inhibitors, primary screen, biochemical, fluorogenic H-Leu-NHMec substrate, 1536-well (AID 1619); assay type: functional
T3 sequence (Q8IL11 whole entry): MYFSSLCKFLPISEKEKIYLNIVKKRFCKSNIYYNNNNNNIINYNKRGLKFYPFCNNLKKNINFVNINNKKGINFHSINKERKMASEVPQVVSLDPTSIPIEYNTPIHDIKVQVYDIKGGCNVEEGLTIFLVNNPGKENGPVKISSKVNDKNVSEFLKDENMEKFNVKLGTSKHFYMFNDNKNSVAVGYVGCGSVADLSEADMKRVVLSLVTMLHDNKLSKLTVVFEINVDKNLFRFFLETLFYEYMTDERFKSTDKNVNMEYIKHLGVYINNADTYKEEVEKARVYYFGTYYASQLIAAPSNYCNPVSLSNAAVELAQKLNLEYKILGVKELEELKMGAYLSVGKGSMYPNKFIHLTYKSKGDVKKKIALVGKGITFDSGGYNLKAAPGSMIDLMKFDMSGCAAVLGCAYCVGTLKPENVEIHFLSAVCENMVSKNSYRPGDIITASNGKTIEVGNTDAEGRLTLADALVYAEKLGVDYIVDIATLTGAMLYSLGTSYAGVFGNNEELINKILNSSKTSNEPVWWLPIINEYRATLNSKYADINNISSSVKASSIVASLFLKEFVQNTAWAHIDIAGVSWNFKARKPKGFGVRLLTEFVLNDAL

[12] = molecular target: 1-phosphatidylinositol 4,5-bisphosphate phosphodiesterase beta-3 (Homo sapiens, UniProt Q01970); experiment: Fluorescence-based biochemical high throughput dose response assay to identify inhibitors of phospholipase C isozymes (PLC-B3).
Sequence of 1-phosphatidylinositol 4,5-bisphosphate phosphodiesterase beta-3 (Q01970 whole entry): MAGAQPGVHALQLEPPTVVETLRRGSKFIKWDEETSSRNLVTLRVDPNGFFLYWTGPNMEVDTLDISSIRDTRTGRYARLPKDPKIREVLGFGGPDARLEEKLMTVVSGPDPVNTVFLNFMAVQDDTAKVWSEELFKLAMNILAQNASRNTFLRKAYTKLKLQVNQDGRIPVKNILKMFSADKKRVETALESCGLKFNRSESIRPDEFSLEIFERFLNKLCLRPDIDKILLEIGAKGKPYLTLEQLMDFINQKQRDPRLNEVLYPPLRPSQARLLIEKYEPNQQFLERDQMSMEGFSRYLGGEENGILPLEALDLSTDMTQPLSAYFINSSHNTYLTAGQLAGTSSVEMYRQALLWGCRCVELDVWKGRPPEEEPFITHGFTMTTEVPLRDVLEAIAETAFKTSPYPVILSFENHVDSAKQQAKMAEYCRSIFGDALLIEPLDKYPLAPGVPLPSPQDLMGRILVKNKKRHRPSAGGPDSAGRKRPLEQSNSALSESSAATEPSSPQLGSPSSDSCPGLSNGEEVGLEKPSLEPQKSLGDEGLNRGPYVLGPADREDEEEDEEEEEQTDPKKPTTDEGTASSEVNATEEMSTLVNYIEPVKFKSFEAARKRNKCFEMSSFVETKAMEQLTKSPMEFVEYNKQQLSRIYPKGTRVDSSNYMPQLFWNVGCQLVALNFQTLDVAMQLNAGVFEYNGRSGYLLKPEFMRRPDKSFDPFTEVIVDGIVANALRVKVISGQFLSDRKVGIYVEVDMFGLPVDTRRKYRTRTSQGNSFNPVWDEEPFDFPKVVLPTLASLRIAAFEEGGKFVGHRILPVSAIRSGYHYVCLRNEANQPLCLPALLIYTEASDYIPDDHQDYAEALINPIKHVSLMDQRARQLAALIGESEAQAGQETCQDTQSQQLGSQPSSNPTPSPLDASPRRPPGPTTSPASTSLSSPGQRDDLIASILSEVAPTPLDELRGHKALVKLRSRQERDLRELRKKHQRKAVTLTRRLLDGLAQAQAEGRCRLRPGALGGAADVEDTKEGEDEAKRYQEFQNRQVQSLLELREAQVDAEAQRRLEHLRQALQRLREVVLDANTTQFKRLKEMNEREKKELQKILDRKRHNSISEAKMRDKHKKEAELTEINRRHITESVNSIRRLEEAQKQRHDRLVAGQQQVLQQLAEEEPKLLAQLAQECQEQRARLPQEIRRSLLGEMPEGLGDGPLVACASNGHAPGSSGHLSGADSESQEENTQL

[13] = molecular target: 1-phosphatidylinositol 4,5-bisphosphate phosphodiesterase gamma-1 (Homo sapiens, UniProt P19174); experiment: Counterscreen for inhibitors of phospholipase C isozymes (PLC-B3): Fluorescence-based biochemical high throughput dose response assay to identify inhibitors of phospholipase C isozymes (PLC-gamma1).
Sequence of 1-phosphatidylinositol 4,5-bisphosphate phosphodiesterase gamma-1 (P19174 whole entry): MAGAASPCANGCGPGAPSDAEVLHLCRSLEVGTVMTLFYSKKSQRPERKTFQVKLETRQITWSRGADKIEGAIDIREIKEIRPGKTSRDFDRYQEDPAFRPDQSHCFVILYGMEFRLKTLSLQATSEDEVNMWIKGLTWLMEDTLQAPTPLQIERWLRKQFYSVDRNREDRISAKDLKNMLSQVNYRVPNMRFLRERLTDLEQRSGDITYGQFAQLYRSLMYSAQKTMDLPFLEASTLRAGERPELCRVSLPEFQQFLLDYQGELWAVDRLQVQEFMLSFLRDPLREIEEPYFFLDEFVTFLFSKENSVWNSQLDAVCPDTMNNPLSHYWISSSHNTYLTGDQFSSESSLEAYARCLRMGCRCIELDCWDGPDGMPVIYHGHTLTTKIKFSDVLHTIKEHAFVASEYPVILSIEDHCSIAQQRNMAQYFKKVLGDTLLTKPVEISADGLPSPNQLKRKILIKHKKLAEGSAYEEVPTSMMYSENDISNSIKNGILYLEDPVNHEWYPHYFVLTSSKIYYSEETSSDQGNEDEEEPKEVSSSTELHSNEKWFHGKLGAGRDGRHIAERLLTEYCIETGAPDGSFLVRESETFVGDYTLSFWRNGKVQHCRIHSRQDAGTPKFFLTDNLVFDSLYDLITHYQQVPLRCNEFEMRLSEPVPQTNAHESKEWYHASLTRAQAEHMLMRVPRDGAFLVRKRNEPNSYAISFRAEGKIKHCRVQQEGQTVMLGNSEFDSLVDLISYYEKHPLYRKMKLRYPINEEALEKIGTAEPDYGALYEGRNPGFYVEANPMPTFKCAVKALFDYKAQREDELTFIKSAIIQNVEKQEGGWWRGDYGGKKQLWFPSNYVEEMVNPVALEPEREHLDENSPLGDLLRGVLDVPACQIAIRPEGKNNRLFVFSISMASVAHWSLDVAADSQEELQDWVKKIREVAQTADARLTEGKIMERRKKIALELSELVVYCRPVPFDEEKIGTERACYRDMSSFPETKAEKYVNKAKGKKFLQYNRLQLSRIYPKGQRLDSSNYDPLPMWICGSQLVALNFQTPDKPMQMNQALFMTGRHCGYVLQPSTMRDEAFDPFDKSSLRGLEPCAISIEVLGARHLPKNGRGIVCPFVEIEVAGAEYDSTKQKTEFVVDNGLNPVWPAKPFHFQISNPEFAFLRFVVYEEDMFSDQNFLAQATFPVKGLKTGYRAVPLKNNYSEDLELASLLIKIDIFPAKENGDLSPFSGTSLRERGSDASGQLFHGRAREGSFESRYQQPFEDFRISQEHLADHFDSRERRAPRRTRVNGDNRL

Vero [14] = experiment: viability of Vero cells under compound – cytotoxicity control for flavivirus capping enzyme inhibitors (AID 588742); assay type: functional; conditions: Chlorocebus sabaeus
Genome polyprotein = Genome polyprotein (dengue virus type 2, UniProt P29990); experiment: flavivirus cap methylation enzyme inhibition – biochemical, confirmation dose response, primary screen (AID 588689); assay type: functional
Sequence of Genome polyprotein (P29990 2492-3391 limits assumed): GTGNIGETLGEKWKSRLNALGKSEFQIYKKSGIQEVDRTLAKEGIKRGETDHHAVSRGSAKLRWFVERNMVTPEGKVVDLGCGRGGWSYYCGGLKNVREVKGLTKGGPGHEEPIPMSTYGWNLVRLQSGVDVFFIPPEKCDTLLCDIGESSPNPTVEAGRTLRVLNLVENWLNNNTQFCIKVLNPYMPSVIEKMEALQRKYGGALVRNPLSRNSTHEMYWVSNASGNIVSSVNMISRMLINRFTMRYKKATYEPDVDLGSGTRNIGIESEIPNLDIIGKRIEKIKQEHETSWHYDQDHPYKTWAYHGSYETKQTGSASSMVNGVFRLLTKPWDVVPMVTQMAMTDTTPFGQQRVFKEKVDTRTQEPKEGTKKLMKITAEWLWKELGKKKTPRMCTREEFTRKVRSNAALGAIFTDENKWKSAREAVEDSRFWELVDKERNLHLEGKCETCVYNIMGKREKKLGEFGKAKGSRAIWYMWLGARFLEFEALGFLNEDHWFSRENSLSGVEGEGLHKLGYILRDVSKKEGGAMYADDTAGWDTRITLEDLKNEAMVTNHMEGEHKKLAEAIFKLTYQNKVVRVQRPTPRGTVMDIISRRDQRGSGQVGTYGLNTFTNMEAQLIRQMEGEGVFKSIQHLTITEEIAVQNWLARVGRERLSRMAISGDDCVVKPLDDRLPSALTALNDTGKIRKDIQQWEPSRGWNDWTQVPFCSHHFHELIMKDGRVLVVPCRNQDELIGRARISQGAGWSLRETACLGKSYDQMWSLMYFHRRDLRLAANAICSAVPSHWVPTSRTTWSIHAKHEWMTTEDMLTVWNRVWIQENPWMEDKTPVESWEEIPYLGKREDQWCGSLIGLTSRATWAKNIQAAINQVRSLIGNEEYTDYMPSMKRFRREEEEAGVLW

[15] = molecular target: T1, Disintegrin and metalloproteinase domain-containing protein 17; experiment: inhibition of ADAM17 substrate cleavage – biochemical, quenched FRET substrate, counter-screen for ADAM10 exosite inhibitor project, dose response (AID 743253)
[16] = non-specific 3'UTR reporter inhibition in Clone20-Shn3RL – cell-based, Renilla luciferase, cherry-picked, counter-screen for Shn3 inhibitor project, dose response (AID 624133); assay type: functional
[17] = reduction of Shn3 3'UTR-driven luciferase in osteoblasts – cell-based, Clone20 osteoblasts, firefly luciferase, cherry-picked, dose response (AID 624132); assay type: functional;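 note: firefly luciferase luminescence from reporter carrying the Shn3 3'UTR in osteoblasts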
Paired box protein Pax-8 = Paired box protein Pax-8 (Homo sapiens, UniProt Q06710); experiment: PAX8 transcriptional activity inhibition in RMG-I – RMG-I cells, luciferase, cherry-pick, dose response (AID 687027); assay type: functional, cell-based;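 note: luciferase reporter driven by Pax8 target thyroperoxidase promoter measured by SteadyGlo luminescence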
Sequence of Paired box protein Pax-8 (Q06710 whole entry): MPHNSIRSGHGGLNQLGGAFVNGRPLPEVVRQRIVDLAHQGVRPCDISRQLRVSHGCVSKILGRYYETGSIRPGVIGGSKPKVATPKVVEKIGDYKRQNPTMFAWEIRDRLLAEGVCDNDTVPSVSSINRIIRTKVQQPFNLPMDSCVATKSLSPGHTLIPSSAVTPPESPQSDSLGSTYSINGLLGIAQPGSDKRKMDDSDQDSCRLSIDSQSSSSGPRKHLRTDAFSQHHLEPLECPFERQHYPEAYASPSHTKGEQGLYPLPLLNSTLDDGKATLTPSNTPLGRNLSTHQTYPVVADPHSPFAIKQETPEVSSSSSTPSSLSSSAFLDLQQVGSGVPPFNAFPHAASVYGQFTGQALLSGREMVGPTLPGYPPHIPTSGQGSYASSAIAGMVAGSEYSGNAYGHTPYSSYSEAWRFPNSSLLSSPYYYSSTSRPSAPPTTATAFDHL

[18] = potency of ADAM10 substrate cleavage blockers – biochemical, QFRET, dose response (AID 743254);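 note: ADAM10 enzyme with the DM2 quenched FRET peptide as substrate; EDANS fluorescence gain as the protease cuts the substrate; inhibitor potency against ADAM10 proteolytic activity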
[19] = molecular target: T4, Sentrin-specific protease 1 (Homo sapiens, UniProt Q9P0U3); experiment: SENP1 catalytic domain blockers, concentration series – biochemical, kinetic FRET, dose response (AID 651697); assay type: functional; conditions: read-out: IC50_Mean
T4 sequence (Q9P0U3 whole entry): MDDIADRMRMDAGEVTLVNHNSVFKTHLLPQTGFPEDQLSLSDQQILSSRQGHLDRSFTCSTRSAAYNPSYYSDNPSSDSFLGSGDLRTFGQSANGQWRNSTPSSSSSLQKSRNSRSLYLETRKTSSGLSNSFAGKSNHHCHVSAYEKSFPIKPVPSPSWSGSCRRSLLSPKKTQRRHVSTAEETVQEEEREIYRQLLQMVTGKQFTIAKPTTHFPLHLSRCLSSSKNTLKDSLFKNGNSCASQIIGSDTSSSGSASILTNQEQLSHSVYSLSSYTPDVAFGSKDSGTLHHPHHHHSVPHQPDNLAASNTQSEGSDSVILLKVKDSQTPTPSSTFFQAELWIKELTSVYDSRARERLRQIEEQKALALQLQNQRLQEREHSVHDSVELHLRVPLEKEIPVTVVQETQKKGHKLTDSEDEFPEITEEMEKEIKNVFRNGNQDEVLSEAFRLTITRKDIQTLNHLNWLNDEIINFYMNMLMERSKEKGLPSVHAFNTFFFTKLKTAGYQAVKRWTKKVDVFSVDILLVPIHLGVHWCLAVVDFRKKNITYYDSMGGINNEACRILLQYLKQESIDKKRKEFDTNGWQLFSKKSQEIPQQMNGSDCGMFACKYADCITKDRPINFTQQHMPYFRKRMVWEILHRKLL

[20] = molecular target: T4, Sentrin-specific protease 1; experiment: Dose response confirmation of small molecule inhibitors of the catalytic domain of the SUMO protease, SENP1 in a FRET assay.; assay type: functional; conditions: read-out: IC50_Mean
[21] = molecular target: Dual specificity tyrosine-phosphorylation-regulated kinase 1A (Rattus norvegicus, UniProt Q63470); assay type: biochemical, Homo sapiens
[22] = A549 cell cytotoxicity, dose response, cytotoxicity control, plate reader, cherry-pick, antagonist series (AID 743412); assay type: functional, cell-based
[23] = toxicity toward HepG2 liver cells – cell-based, plate reader, cherry-pick, antagonist series, cytotoxicity control, dose response (AID 743416); assay type: functional
[24] = viability loss in HEK293 cells – cell-based, plate reader, cherry-picked samples, cytotoxicity control, dose response (AID 743446); assay type: functional
[25] = blockers of bursicon-stimulated LGR2 cAMP reporter – cell-based, HEK293, CRE-luciferase reporter, cherry pick, set 2, dose response (AID 743343); assay type: functional;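 note: transfected cells were stimulated with diluted bursicon conditioned medium after compound addition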
[26] = blockade of melanocortin 4 receptor signaling – cell-based, plate reader, cherry pick, counter-screen for LGR2 antagonist project, dose response (AID 743444); assay type: functional;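 note: transfected HEK 293 cells stimulated with alpha-MSH peptide; potency of inhibitors of the alpha-MSH evoked signal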
[27] = general cell-killing toxicity readout – plate reader, dry powder samples, cytotoxicity control for PAX8 inhibitor project, dose response (AID 743021); assay type: functional, cell-based
[28] = OVCAR-3 cell viability loss – plate reader, dry powder samples, PAX8 inhibitor project, dose response (AID 743044); assay type: functional, cell-based
[29] = IGROV1 cell killing – plate reader, dry powder samples, PAX8 inhibitor project, dose response (AID 743043); assay type: functional, cell-based; conditions: IGROV-1
[30] = OVCAR8 cell viability loss – plate reader, dry powder samples, PAX8 project, dose response (AID 743197); assay type: functional, cell-based; conditions: OVCAR-8
[31] = toxicity toward immortalized ovarian surface epithelium – cell-based, plate reader, dry powder samples, cytotoxicity control for PAX8 inhibitor project, dose response (AID 743045); assay type: functional

## CCOc1cc2c3c(c1)C1(C(=O)N3C(C)(C)C=C2C)C(C#N)=C(N)Oc2cc(O)ccc21 (centres undefined)
[1]
  CC50: 11.8 µM (active)
[2]
  IC50: > 69.5 µM (inactive)
[3]
  IC50: > 69.5 µM (inactive)

## CSc1ccc(S(=O)(=O)NC2CC3CCC2C3)cc1 (centres undefined)
Vero [4]
  AC50: 16.8 µM (active)

## Cc1nn(Cc2ccc(Cl)c(Cl)c2)c(C)c1NC(=O)c1cc(-c2ccc3c(c2)OCO3)on1
[5]
  AC50: 20.3 µM (active)
[6]
  AC50: > 70 µM (inactive)
[7]
  AC50: 0.471 µM (active)
[8]
  AC50: 20.6 µM (active)
[9]
  AC50: 28.7 µM (active)
[10]
  AC50: 56 µM (active)

## CC1(C)CC(NC(=O)COc2ccccc2Cl)CC(C)(C)N1
Vero [4]
  AC50: 33.7 µM (active)
[11]
  EC50: 2.65 µM (active)

## O=Cc1cc(N=Nc2cccc(C(=O)O)c2)ccc1O
Leucine aminopeptidase
  IC50: 51.5 µM (active)
[12]
  IC50: > 122 µM (inactive)
[13]
  IC50: 23.7 µM (inactive)
Vero [14]
  CC50: > 40 µM (active)
Genome polyprotein
  IC50: 99.6 µM (active)

## C=CCC[C@H](Cc1ccc(F)cc1)C(=O)OC[C@H](Cc1c[nH]c2ccccc12)NC(=O)[C@H](CC=C)CC(=O)N(CCO)Cc1ccccc1
[15]
  IC50: > 69.5 µM (inactive)
[16]
  AC50: 20.1 µM (active)
[17]
  AC50: 11.7 µM (active)
Paired box protein Pax-8
  AC50: 12.9 µM (active)
[18]
  IC50: 6.93 µM (active)

## Cc1ccc2c(c1)C(=C(C#N)C#N)CCN2
[6]
  AC50: 42.3 µM (active)
[19]
  IC50: 20.1 µM (inactive)
[20]
  IC50: 11 µM (active)
[9]
  AC50: 2 µM (active)
[21]
  AC50: 5.69 µM (active)

## CCCCn1nnnc1C(CCc1ccccc1)N1CCC(n2c(O)nc3ccccc32)CC1 (centres undefined)
[22]
  AC50: 19 µM (active)
[23]
  AC50: > 52 µM (inactive)
[24]
  AC50: 19.8 µM (active)
[25]
  AC50: 20.1 µM (active)
[26]
  AC50: 7.55 µM (active)

## CCCCc1c(-c2cccc(OC)c2)ncn1CCc1ccccc1OC
[22]
  AC50: 19.2 µM (active)
[23]
  AC50: 15.1 µM (active)
[24]
  AC50: 29 µM (active)
[25]
  AC50: 16.3 µM (active)
[26]
  AC50: 12.9 µM (active)

## COc1ccc(S(=O)(=O)N(C)C[C@@H]2OCCCC[C@H](C)Oc3ccc(NS(=O)(=O)c4ccc(Cl)cc4)cc3C(=O)N([C@H](C)CO)C[C@@H]2C)cc1
[27]
  AC50: 58.4 µM (active)
[28]
  AC50: 26.9 µM (active)
Paired box protein Pax-8
  AC50: 4.8 µM (active)

## Cc1cccc(S(=O)(=O)N2CCCCN3[C@H](CO)[C@H](c4ccc(C#CC(C)C)cc4)[C@H]3C2)c1
[29]
  AC50: 39.5 µM (active)
[28]
  AC50: 9.65 µM (active)
[30]
  AC50: 28.4 µM (active)
[31]
  AC50: 36.9 µM (active)
Paired box protein Pax-8
  AC50: 9.99 µM (active)

## CC(=O)N1C[C@@H](c2c[nH]c3ccccc23)C=C[C@H]1C(=O)NS(=O)(=O)c1ccc(C)cc1
[12]
  IC50: > 122 µM (inactive)
[13]
  IC50: > 4.54 µM (active)

## CCOc1ccc(/C=N/NC(=O)Cc2csc(Nc3cccc(C(F)(F)F)c3)n2)c(OCC)c1
[15]
  IC50: > 69.5 µM (inactive)
[18]
  IC50: > 69.5 µM (inactive)

— ChEMBL document CHEMBL1201862, “PubChem BioAssay data set” (2004)
